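96-well plates; 48 h exposure; 5 concentrations. Endpoints by linear interpolation between flanking doses. Not reached: highest tested concentration assigned. Definition used: TGI = concentration required for complete inhibition of growth.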
Legend:
Test in all cases: NCI-60 cell line screen, 48 h
[1] = test system: MOLT-4 leukemia
[2] = test system: SK-MEL-28 melanoma
[3] = test system: BT-549 breast
[4] = test system: COLO 205 colon
[5] = test system: OVCAR-8 ovarian
[6] = test system: RPMI-8226 leukemia
[7] = test system: SF-295 CNS
[8] = test system: DU-145 prostate
[9] = test system: UACC-62 melanoma
[10] = test system: ACHN renal
[11] = test system: TK-10 renal
[12] = test system: M14 melanoma
[13] = test system: EKVX NSCLC
[14] = test system: NCI-H460 lung
[15] = test system: SK-MEL-2 melanoma
[16] = test system: CAKI-1 renal
[17] = test system: SF-539 CNS
[18] = test system: SN12C renal
[19] = test system: NCI-H23 lung
[20] = test system: UACC-257 melanoma
[21] = test system: SNB-19 CNS
[22] = test system: MDA-MB-231 breast
[23] = test system: HOP-92 NSCLC
[24] = test system: OVCAR-5 ovarian
[25] = test system: MCF7 breast
[26] = test system: HS 578T breast
[27] = test system: 786-0 renal
[28] = test system: OVCAR-4 ovarian
[29] = test system: MDA-MB-435
[30] = test system: PC-3 prostate
[31] = test system: HCC-2998 colon
[32] = test system: SW-620 colon
[33] = test system: A498 renal
[34] = test system: IGROV1 ovarian
[35] = test system: LOX IMVI melanoma
[36] = test system: NCI/ADR-RES ovarian
[37] = test system: HT29 colon
[38] = test system: SF-268 CNS
[39] = test system: SR leukemia
[40] = test system: CCRF-CEM leukemia
[41] = test system: U251 CNS
[42] = test system: MDA-N
[43] = test system: OVCAR-3 ovarian
[44] = test system: SNB-75 CNS
[45] = test system: HOP-62 NSCLC
[46] = test system: NCI-H522 lung
[47] = test system: UO-31 renal
[48] = test system: KM12 colon
[49] = test system: HL-60(TB) leukemia
[50] = test system: T-47D breast
[51] = test system: MALME-3M melanoma
[52] = test system: HCT-15 colon
[53] = test system: HCT-116 colon
[54] = test system: A549 NSCLC
[55] = test system: SK-MEL-5 melanoma
[56] = test system: SK-OV-3 ovarian
[57] = test system: K-562 leukemia
[58] = test system: RXF 393 renal
[59] = test system: NCI-H226 lung

`N#Cc1ccc(OCc2ccc3nc(-c4ccccc4)c(Cl)nc3c2)cc1` showed a TGI [1] of over 100 µM, a TGI [2] of over 100 µM and a TGI [3] of over 100 µM. For the same compound, the TGI [4] was over 100 µM, the TGI [5] was over 100 µM and the TGI [6] was over 100 µM. For the same compound, the TGI [7] was over 100 µM, the TGI [8] was over 100 µM and the TGI [9] was over 100 µM. It also gave a TGI [10] of over 100 µM, a TGI [11] of over 100 µM and a TGI [12] of over 100 µM. For the same compound, the TGI [13] was over 100 µM, the TGI [14] was over 100 µM and the TGI [15] was over 100 µM. It also gave a TGI [16] of over 100 µM, a TGI [17] of over 100 µM and a TGI [18] of over 100 µM. The TGI [19] was over 100 µM, the TGI [20] was over 100 µM and the TGI [21] was over 100 µM. The TGI [22] was over 100 µM, the TGI [23] was over 100 µM and the TGI [24] was over 100 µM. The TGI [25] was over 100 µM, the TGI [26] was over 100 µM and the TGI [27] was over 100 µM. For the same compound, the TGI [28] was over 100 µM, the TGI [29] was over 100 µM and the TGI [30] was over 100 µM. It also gave a TGI [31] of over 100 µM, a TGI [32] of over 100 µM and a TGI [33] of over 100 µM. For the same compound, the TGI [34] was over 100 µM, the TGI [35] was over 100 µM and the TGI [36] was over 100 µM. It also gave a TGI [37] of over 100 µM, a TGI [38] of over 100 µM and a TGI [39] of over 100 µM. For the same compound, the TGI [40] was over 100 µM, the TGI [41] was over 100 µM and the TGI [42] was over 100 µM. For the same compound, the TGI [43] was over 100 µM, the TGI [44] was over 100 µM and the TGI [45] was over 100 µM. The TGI [46] was over 100 µM, the TGI [47] was over 100 µM and the TGI [48] was over 100 µM. For the same compound, the TGI [49] was over 100 µM, the TGI [50] was over 100 µM and the TGI [51] was over 100 µM. It also gave a TGI [52] of over 100 µM, a TGI [53] of over 100 µM and a TGI [54] of over 100 µM. For the same compound, the TGI [55] was over 100 µM.

`O=[N+]([O-])c1ccc(N=NN2CCCC2)cc1` was tested, and the TGI [1] was over 100 µM, the TGI [56] was over 100 µM and the TGI [3] was over 100 µM. The TGI [4] was over 100 µM, the TGI [5] was over 100 µM and the TGI [6] was over 100 µM. For the same compound, the TGI [7] was over 100 µM, the TGI [8] was over 100 µM and the TGI [9] was over 100 µM. The TGI [10] was over 100 µM, the TGI [11] was over 100 µM and the TGI [12] was over 100 µM. It also gave a TGI [13] of over 100 µM, a TGI [14] of over 100 µM and a TGI [15] of over 100 µM. It also gave a TGI [16] of over 100 µM, a TGI [17] of over 100 µM and a TGI [18] of over 100 µM. It also gave a TGI [19] of over 100 µM, a TGI [20] of over 100 µM and a TGI [21] of over 100 µM. For the same compound, the TGI [22] was over 100 µM, the TGI [57] was over 100 µM and the TGI [58] was over 100 µM. It also gave a TGI [23] of over 100 µM, a TGI [24] of over 100 µM and a TGI [25] of over 100 µM. The TGI [26] was over 100 µM, the TGI [27] was over 100 µM and the TGI [28] was over 100 µM. It also gave a TGI [29] of over 100 µM, a TGI [30] of over 100 µM and a TGI [31] of 20.6 µM. The TGI [32] was over 100 µM, the TGI [33] was over 100 µM and the TGI [34] was over 100 µM. For the same compound, the TGI [35] was over 100 µM, the TGI [36] was over 100 µM and the TGI [38] was over 100 µM. The TGI [39] was over 100 µM, the TGI [40] was over 100 µM and the TGI [41] was over 100 µM. It also gave a TGI [59] of over 100 µM, a TGI [42] of over 100 µM and a TGI [43] of over 100 µM. The TGI [44] was over 100 µM, the TGI [45] was over 100 µM and the TGI [46] was over 100 µM. For the same compound, the TGI [47] was over 100 µM, the TGI [48] was over 100 µM and the TGI [49] was over 100 µM. The TGI [50] was over 100 µM, the TGI [52] was over 100 µM and the TGI [53] was over 100 µM. The TGI [55] was over 100 µM.
